Here are results for 26 compounds from ChEMBL document CHEMBL4020781, “Discovery of potent and orally active 1,4-disubstituted indazoles as novel allosteric glucokinase activators” (Bioorg Med Chem Lett, 2017).

Calls of active or inactive are those of the source. The calls are words filed in the database; no cut-off is given here.

Data set [1] addresses T1, Hexokinase-4 (Homo sapiens) (UniProt P35557).
T1 sequence (whole entry): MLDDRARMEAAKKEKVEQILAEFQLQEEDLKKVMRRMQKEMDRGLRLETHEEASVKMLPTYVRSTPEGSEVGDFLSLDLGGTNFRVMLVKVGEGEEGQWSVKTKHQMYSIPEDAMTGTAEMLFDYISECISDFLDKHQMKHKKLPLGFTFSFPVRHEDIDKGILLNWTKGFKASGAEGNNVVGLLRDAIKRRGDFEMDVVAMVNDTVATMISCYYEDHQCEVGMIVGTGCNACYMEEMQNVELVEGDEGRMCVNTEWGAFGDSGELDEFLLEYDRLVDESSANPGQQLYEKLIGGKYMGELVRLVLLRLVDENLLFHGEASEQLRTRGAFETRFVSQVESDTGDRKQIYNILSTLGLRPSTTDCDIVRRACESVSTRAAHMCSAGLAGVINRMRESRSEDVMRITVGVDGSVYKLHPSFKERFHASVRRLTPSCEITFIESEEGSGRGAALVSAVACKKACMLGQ
Kind of data set: Activation of full length human C-terminal FLAG-tagged glucokinase (12 to 465 residues) expressed in Escherichia coli DH10b using glucose as substrate after 60 mins in presence of ATP by kinase-glo luminescence assay relative to control. (Kinase-Glo measures the ATP left after a reaction by luminescence.)

For another data set, the target named is T2, Hexokinase-4 (Homo sapiens, UniProt P35557).
T2 sequence (P35557 whole entry): T1 sequence (whole entry)
Kind of data set: Activation of full length human C-terminal FLAG-tagged glucokinase (12 to 465 residues) expressed in Escherichia coli DH10b using glucose as substrate after 60 mins in presence of ATP by kinase-glo luminescence assay.

A further data set addresses hERG (KCNH2) (Homo sapiens, UniProt Q12809). Kind of data set: Inhibition of human ERG at 10 uM.
The subject of data set [2] is Mus musculus. Kind of data set: Antidiabetic activity in ob/ob mouse assessed as reduction in glucose excursion at 30 mg/kg, po by oral glucose tolerance test. It counts as functional, organism-based.
Data set [3] addresses T1, Hexokinase-4 (Homo sapiens). The data set can be described thus: Potency index, ratio of (S)-N-(5-chlorothiazol-2-yl)-2-(4-(cyclopropylsulfonyl)-6-methyl-2-oxopyridin-1(2H)-yl)-3-(tetrahydro-2H-pyran-4-yl)propanamide EC50 to compound EC50 for full length human C-terminal FLAG-tagged glucokinase (12 to 465 residues).
Data set [4] is described as follows: Hepatic extraction ratio in human liver microsomes. It counts as ADME, microsome. Particulars: read-out: ERH.
The nature of data set [5]: Plasma protein binding in human. It counts as ADME, cell-free. The settings on record: read-out: PPB (converted).
A short description of data set [6]: Oral bioavailability in rat. Particulars: in vivo. The format is ADME, organism-based.
Data set [7] can be described thus: Hepatic extraction ratio in mouse liver microsomes. Particulars: read-out: ERH. The format is ADME, microsome. On the technique in general: Liver microsomes are vesicles of endoplasmic reticulum, rich in cytochrome P450 enzymes.
A short description of data set [8]: Half life in orally dosed rat. The format is ADME, organism-based. Particulars: in vivo, po.
Data set [9] can be described thus: Clearance in orally dosed rat. It counts as ADME, organism-based. The settings on record: in vivo, po.
For the next data set, the system named is Rattus norvegicus. Kind of data set: Volume of distribution in orally dosed rat. It counts as ADME, organism-based. Particulars: in vivo, po.
Data set [10] concerns Mus musculus. Kind of data set: Antidiabetic activity in C57BL/6J mouse assessed as glucose lowering effect at 30 mg/kg, po. It counts as functional, organism-based.
The nature of data set [11]: Hepatic extraction ratio in rat liver microsomes. The format is ADME, microsome. Particulars: read-out: ERH.

By EC50 is commonly meant the concentration needed to bring the measured effect to its halfway point. As usually defined, the inhibition is the percentage by which the read-out fell short of the control. One may read the bioavailability as dose-corrected exposure relative to a reference, in per cent. A higher bioavailability goes with good availability. For orientation: half-life means the time in which the quantity being followed falls by half. Higher therefore signals slow decline. As usually defined, the CL/F is the apparent clearance, not corrected for the fraction that reaches the circulation.

hERG (KCNH2), sequence (Q12809 whole entry): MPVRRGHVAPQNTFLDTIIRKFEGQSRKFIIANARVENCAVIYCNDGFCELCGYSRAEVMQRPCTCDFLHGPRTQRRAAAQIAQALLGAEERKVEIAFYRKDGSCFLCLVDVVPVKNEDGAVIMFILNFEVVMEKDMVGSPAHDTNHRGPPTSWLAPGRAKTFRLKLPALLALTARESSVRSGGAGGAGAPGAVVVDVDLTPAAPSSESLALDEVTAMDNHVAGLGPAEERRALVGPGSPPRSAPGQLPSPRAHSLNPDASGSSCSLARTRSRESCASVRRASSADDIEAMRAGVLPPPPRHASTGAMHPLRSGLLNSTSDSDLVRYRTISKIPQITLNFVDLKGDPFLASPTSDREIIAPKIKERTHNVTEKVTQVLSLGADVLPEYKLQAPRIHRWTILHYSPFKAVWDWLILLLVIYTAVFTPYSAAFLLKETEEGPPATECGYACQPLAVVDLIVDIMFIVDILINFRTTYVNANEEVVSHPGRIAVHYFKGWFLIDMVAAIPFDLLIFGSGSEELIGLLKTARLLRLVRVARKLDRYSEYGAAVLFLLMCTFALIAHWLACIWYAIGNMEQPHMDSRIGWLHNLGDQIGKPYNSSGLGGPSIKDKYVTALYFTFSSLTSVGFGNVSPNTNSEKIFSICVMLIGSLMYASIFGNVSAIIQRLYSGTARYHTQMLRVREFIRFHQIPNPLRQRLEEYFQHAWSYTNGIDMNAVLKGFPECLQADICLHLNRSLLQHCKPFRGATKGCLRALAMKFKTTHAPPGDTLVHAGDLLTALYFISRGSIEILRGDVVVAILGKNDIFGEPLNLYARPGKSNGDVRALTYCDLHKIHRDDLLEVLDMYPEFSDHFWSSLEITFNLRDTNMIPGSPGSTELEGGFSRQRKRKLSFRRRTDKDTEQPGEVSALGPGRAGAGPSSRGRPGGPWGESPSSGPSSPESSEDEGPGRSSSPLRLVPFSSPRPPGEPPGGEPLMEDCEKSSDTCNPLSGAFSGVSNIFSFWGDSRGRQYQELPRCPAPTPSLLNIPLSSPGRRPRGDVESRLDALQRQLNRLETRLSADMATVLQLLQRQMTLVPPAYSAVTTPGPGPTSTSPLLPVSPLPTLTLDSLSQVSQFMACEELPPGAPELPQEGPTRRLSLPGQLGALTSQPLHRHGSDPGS

For `N#Cc1cc(S(=O)(=O)C2CC2)c2cnn(C(CC3CCOCC3)C(=O)Nc3ncc(F)s3)c2c1` (racemic), the %max in [1] amounted to 74%. The EC50 on Hexokinase-4 was found to be 100 nM. Also, at hERG (KCNH2), the inhibition at 10 µM was determined as 83%.
For `Cc1cc(S(=O)(=O)C2CC2)cc(=O)n1[C@@H](CC1CCOCC1)C(=O)Nc1ncc(Cl)s1`, in data set [1], the %max was 77%. The concentration for a half-maximal effect (EC50) on Hexokinase-4 was 1200 nM. Further, the result in the data set with Mus musculus [2] was Active.
Turning to `O=C(Nc1ccn(CCO)n1)C(CC1CCOCC1)n1ncc2c(S(=O)(=O)C3CC3)cccc21` (racemic), the %max in data set [1] worked out at 73%. Also, on Hexokinase-4, the EC50 is 3100 nM. Also, the inhibition at 10 µM against hERG (KCNH2) came to 12.5%.
For `NC(=O)c1cc(S(=O)(=O)C2CC2)c2cnn([C@@H](CC3CCOCC3)C(=O)Nc3ncc(F)s3)c2c1`, the %max in [1] amounted to 97%. The EC50 on Hexokinase-4 was 100 nM.
Turning to `O=C(Nc1ncc(Cl)s1)[C@H](CC1CCOCC1)n1ncc2c(S(=O)(=O)C3CC3)cccc21`, in [3], the Ratio EC50 turned out to be 40. The hepatic extraction ratio in data set [4] was 0.67. In addition, the %max in data set [1] stood at 65%. In addition, on Hexokinase-4, the half-maximal effective concentration (EC50) was 31 nM. The inhibition at 10 µM against hERG (KCNH2) fell in the range of 85 to 93%. Besides, the fraction unbound in data set [5] was 0.0004.
For `O=C(Nc1ncc(Cl)s1)[C@H](CC1CCOCC1)n1ncc2cc(S(=O)(=O)C3CC3)ccc21`, the %max in data set [1] was 26%. The EC50 on Hexokinase-4 is 500 nM.
Regarding `Cn1ccc(NC(=O)C(CC2CCOCC2)n2ncc3c(S(=O)(=O)C4CC4)cccc32)n1` (racemic), the %max in data set [1] is 79%. Moreover, on Hexokinase-4, the EC50 worked out at 1200 nM. In addition, the inhibition at 10 µM on hERG (KCNH2) is 23%.
For `COc1cc(S(=O)(=O)C2CC2)c2cnn([C@@H](CC3CCOCC3)C(=O)Nc3ncc(F)s3)c2c1` the same measures were 100%, 100 nM and 78%.
For `CC(C)(C)S(=O)(=O)c1cnn(C(CC2CCOCC2)C(=O)Nc2ncc(F)s2)c1` (racemic), the %max in data set [1] was found to be 0%. Besides, the EC50 at Hexokinase-4 was greater than 100000 nM.
Regarding `O=C(Nc1ncc(F)s1)[C@H](CC1CCOCC1)n1ncc2c(S(=O)(=O)C3CC3)ccnc21`, in data set [1], the %max was 74%. Also, the EC50 on Hexokinase-4 is 120 nM. At hERG (KCNH2), this compound displayed an inhibition at 10 µM of 71%.
For `O=C(Nc1cnccn1)[C@H](CC1CCOCC1)n1ncc2c(S(=O)(=O)C3CC3)cccc21` the same measures were 95%, 790 nM and 45%.
For `O=C(Nc1ncc(F)s1)[C@H](CC1CCOCC1)n1ncc2c(S(=O)(=O)C3CC3)cc(F)cc21` the same measures were 91%, 120 nM and 77%.
For `O=C(Nc1ncc(F)s1)[C@H](CC1CCOCC1)n1ncc2c(S(=O)(=O)C3CC3)cccc21`, the %max in [1] turned out to be 83%. In addition, the EC50 at Hexokinase-4 was found to be 40 nM. Also, the inhibition at 10 µM against hERG (KCNH2) is 84%.
Take `O=C(Nc1ncc(F)s1)[C@H](CC1CCOCC1)n1ncc2c(S(=O)(=O)C3CC3)cncc21`: the hepatic extraction ratio in data set [4] came to 0.59; in data set [7], 0.56; in [11] it was 0.33. In data set [6], the bioavailability was 51%. Moreover, the %max in [1] was found to be 71%. Besides, the half-life in data set [8] is 4.3 h. In data set [9], the CL/F is 29 mL/min/kg. Further, at Hexokinase-4, the EC50 is 80 nM. The Vd in the data set on Rattus norvegicus was 1.9 L/kg. Further, the outcome with Mus musculus [10] and with Mus musculus [2] was Active. The inhibition at 10 µM on hERG (KCNH2) came out at 46%.
`O=C(Nc1ncc(F)s1)C(CC1CCOCC1)n1cc(S(=O)(=O)c2cccc(Cl)c2)cn1` (racemic): the %max in [1] is 0%. The EC50 at Hexokinase-4 was greater than 100000 nM.
`O=C(Nc1ncc(Cl)s1)[C@H](CC1CCCC1)n1cc(S(=O)(=O)C2CC2)cn1`: the hepatic extraction ratio in [4] was found to be 0.91; in data set [11], 0.85. Also, the %max in data set [1] is 88%. In addition, the concentration for a half-maximal effect (EC50) on Hexokinase-4 came to 630 nM.
For `O=C(Nc1ncc(F)s1)[C@H](CC1CCOCC1)n1cc(S(=O)(=O)C2CC2)cn1` the same measures were 0.31 to 0.39, 0.31 to 0.39, 37% and 4000 nM.
Take `Cc1nnc(NC(=O)C(CC2CCOCC2)n2ncc3c(S(=O)(=O)C4CC4)cccc32)s1` (racemic): the %max in data set [1] stood at 74%. Besides, the EC50 on Hexokinase-4 was 5000 nM. The same compound yielded an inhibition at 10 µM against hERG (KCNH2) of 23%.
For `NC(=O)c1cccnc1NC(=O)C(CC1CCOCC1)n1ncc2c(S(=O)(=O)C3CC3)cccc21` (racemic) the same measures were 38%, 200 nM and 29%.
Take `O=C(Nc1ncc(F)s1)[C@H](CC1CCCC1)n1cc(S(=O)(=O)C2CC2)cn1`: the hepatic extraction ratio in data set [4] turned out to be 0.91; in data set [11], 0.85. In addition, the %max in [1] is 73%. Further, on Hexokinase-4, the EC50 turned out to be 630 nM.
For `O=C(Nc1ncc(Cl)s1)[C@H](CC1CCOCC1)n1cc(S(=O)(=O)C2CC2)cn1`, in that order: 0.31 to 0.39, 0.31 to 0.39, 35% and 2000 nM.
As for `O=C(Nc1ncc(F)s1)[C@H](CC1CCOCC1)n1ncc2c(S(=O)(=O)C3CC3)cc(O)cc21`, in data set [1], the %max was found to be 96%. Besides, on Hexokinase-4, the EC50 worked out at 100 nM.
For `O=C(Nc1ncc(Cl)s1)[C@H](CC1CCOCC1)n1cc(S(=O)(=O)C2CCCC2)cn1` the same measures were 32% and 1000 nM.
With `Cc1ccc(NC(=O)C(CC2CCOCC2)n2ncc3c(S(=O)(=O)C4CC4)cccc32)nn1` (racemic), the %max in data set [1] is 50%. Moreover, at Hexokinase-4, the EC50 came out at 7900 nM. In addition, the inhibition at 10 µM against hERG (KCNH2) is 57%.
As to `O=C(Nc1ncc(Cl)s1)C(CC1CCOCC1)n1ncc2ccc(S(=O)(=O)C3CC3)cc21` (racemic), the %max in [1] was found to be 0%. At Hexokinase-4, the EC50 was greater than 100000 nM.
For `NC(=O)c1cnc(NC(=O)C(CC2CCOCC2)n2ncc3c(S(=O)(=O)C4CC4)cccc32)s1` (racemic), in data set [1], the %max amounted to 49%. Also, the EC50 on Hexokinase-4 was found to be 1600 nM. At hERG (KCNH2), this compound displayed an inhibition at 10 µM of 26%.
